# According to US20160333063A1, “SOLUBLE HIGH MOLECULAR WEIGHT (HMW) TAU SPECIES AND APPLICATIONS THEREOF” (THE GENERAL HOSPITAL CORPORATION, priority 2013, published 2016):
# Where a SMILES comes first, the peptide text is derived from it. The star is where a group is joined. Cbz = O=C(OCc1ccccc1)*; CH2F = FC*
# Assays:
# Type in all cases: cell-based, mouse
# [1] = tested on: caspase 3; experiment: Western blot of cleaved caspase 3 in treated primary cortical neurons
# Method: (§1) Treatment of neuronal cultures. Wild-type (from CD1 mice), Tau−/−, Tau+/−, and Tau+/+ cortical neurons were cultured in standard NB/B27 serum-free medium, and, at 14 DIV, the medium was replaced with diluted 1:3 CM from TgCM, corresponding to 4 nM of Aβ, or WtCM (0.16 nM of murine Aβ40) and further incubated for 24 hrs. To induce apoptosis, cultures were treated with staurosporine (Enzo Life Sciences) at a final concentration of 1 μM and were harvested 4 hours after treatment. In zVAD-FMK (Sigma Aldrich) experiments, 20 μM of the inhibitor was applied to cultures 20 minutes prior to exposure to WtCM, TgCM, or STS. To inhibit calcineurin, 1 μM FK506 (Enzo Life Sciences) was applied 20 minutes prior to exposure to WtCM, TgCM or STS. Media was then aspirated and RIPA buffer with phosphatase and protease inhibitors was added to each well. Cells were scraped to prepare lysates for Western blots.
# Western Blot. Protein lysates were boiled in sample buffer consisting of LDS Sample Buffer and reducing Agent, resolved on 4%-12% Bis-Tris polyacrylamide precast gels in a MES-SDS running buffer containing antioxidant. For most analyses, 20 μg/lane were loaded. Gels were transferred onto nitrocellulose membranes (Whatman) in transfer buffer containing 20% methanol. Blots were blocked in Odyssey blocking buffer (Li-Cor biosciences), followed by incubation with primary antibodies: mouse β-actin (Sigma; 1:10,000); rabbit cleaved caspase 3 (Cell Signaling; 1:1,000); rabbit caspase 3 (Cell Signaling; 1:1,000); mouse TauC3 (courtesy of Dr Lester Binder, 1:300); rabbit polyclonal Total Tau (Dako; 1:10,000), rabbit PSD95 (1:1,000; Cell Signaling), rabbit cleaved caspase 9 (1:1,000; Cell Signaling), mouse caspase 9 (1:1,000; Cell Signaling), rabbit pBAD (1:1,000; Cell Signaling), rabbit BAD (1:1,000; Cell Signaling), VDAC (1:1,000; Cell Signaling), mouse cytochrome c (1:1,000; BD Pharmingen), mouse BAX (1:1,000; Santa Cruz), rabbit cleaved PARP (1:1,000; Cell Signaling), rabbit PARP (1:1,000; Cell Signaling). […]
# [2] = tested on: BAD; experiment: Western blot of phosphorylated BAD in treated primary cortical neurons; settings: TgCM treated cultures, inhibitor or Aβ immunodepletion
# Method: as §1
# (§2) Western Blot. Protein lysates were boiled in sample buffer consisting of LDS Sample Buffer and reducing Agent, resolved on 4%-12% Bis-Tris polyacrylamide precast gels in a MES-SDS running buffer containing antioxidant. For most analyses, 20 μg/lane were loaded. Gels were transferred onto nitrocellulose membranes (Whatman) in transfer buffer containing 20% methanol. […]
# [3] = tested on: PSD95; experiment: Western blot of PSD95; settings: co-treated with inhibitor
# Method: as §1, §2
# [4] = tested on: cytochrome c; experiment: Western blot of cytochrome c in cytosolic fraction and mitochondrial pellet; settings: TgCM treated cultures plus inhibitor
# Method: as §1
# Mitochondria Isolations. Mitochondria were isolated from neurons plated in 10 cm dishes treated with WtCM and TgCM and purified by centrifugation as previously described (Ofengeim et al., 2012). […] The protein concentration was determined by BCA assay (Thermo Scientific) in all fractions and this concentration used for loading gels for western blot analysis. […]
# [5] = tested on: tau cleaved at Asp421 (TauC3); experiment: Western blot of tau cleaved at Asp421 in treated primary cortical neurons
# Method: as §1, §2
# [6] = tested on: GFP transfected neurons; experiment: Spine density of GFP transfected neurons
# Method: Analysis of spine density and spine morphology. Cultured neurons plated in 35 mm glass-bottomed dishes (MatTek) were transfected with green fluorescent protein (GFP) (Clontech) at 7 DIV and imaged at 15 DIV. High-resolution digital images were taken using a Zeiss LSM510 confocal microscope with a 25× water-immersion objective lens (digital zoom=3-5), and excitation laser at 488 nm. Images were analyzed with NeuronStudio software (CNIC, Mount Sinai School of Medicine). Spine density was defined as the number of spines per micrometer of dendrite length according previously published protocols (Wu et al., 2010) with modifications. Dendritic spine densities were calculated from 30 to 40 neurons per condition across four separate culture experiments. For each condition, measurements of spine densities were averaged per neuron; the means from multiple neurons were then averaged to obtain the mean±s.e.m. for the population of neurons.
# [7] = tested on: caspase 9; experiment: Western blot of cleaved caspase 9 in treated primary cortical neurons; settings: TgCM treated cultures, inhibitor or Aβ immunodepletion
# Method: as §1, §2
# [8] = tested on: primary neuronal cultures; experiment: ToxiLight BioAssay for cell death
# Method: ToxiLight BioAssay. Toxicity assays were conducted in medium collected from wild-type, Tau+/− and Tau−/− neurons plated in 96 well plates at 15 DIV using the ToxiLight BioAssay kit (Lonza, Rockland, Me.). Preparation of cell extracts and the cytotoxicity assay were performed according to manufacturer protocols. After centrifugation, 50 μl samples per well were transferred on an opaque white microtitre plate. To each well, 100 μl of the adenylate kinase detection reagent was added and the plate was incubated for 5 min at room temperature. After 5 min, luminescence was measured in the Wallac plate reader. Results are expressed as arbitrary relative light units (AU). To achieve 100% cell lysis (positive control) neurons were treated with 10% triton-X-100. […] Neurons for Toxilight assays were plated in 96 well plates using 3 wells per condition in duplicate across four separate culture experiments.
# [9] = tested on: poly (ADP-ribose) polymerase (PARP); experiment: Western blot of cleaved PARP; settings: TgCM 24 hrs; STS 6 hours
# Method: as §1, with “To induce apoptosis, cultures were treated with staurosporine (Enzo Life Sciences) at a final concentration of 1 μM and were harvested 4 hours after treatment.” left out
# as §2
# [10] = STS 1 μM plus caspase inhibition
# [11] = TgCM (4 nM Aβ) 24 hrs, inhibitor applied 20 minutes prior
compound,measurement,setting,value
C=CC[C@@H]1/C=C(\C)C[C@H](C)C[C@H](OC)[C@H]2O[C@@](O)(C(=O)C(=O)N3CCCC[C@H]3C(=O)O[C@H](/C(C)=C/[C@@H]3CC[C@@H](O)[C@H](OC)C3)[C@H](C)[C@@H](O)CC1=O)[C@H](C)C[C@@H]2OC [FK506],"caspase 3 activation, tau cleavage, caspase 9 activation and BAD dephosphorylation in WtCM treated cultures",[1]; WtCM plus inhibitor,no effect
COC(=O)C[C@H](NC(=O)[C@H](C)NC(=O)[C@@H](NC(=O)OCc1ccccc1)C(C)C)C(=O)CF [zVAD-FMK] (Cbz-Val-Ala-Asp(OMe)-CH2F),TgCM-induced dephosphorylation of BAD,[2],did not prevent dephosphorylation of BAD
same,PSD95 levels in neurons exposed to TgCM,[3],preserved
same,caspase 3 activation in STS treated cells,[1]; [10],reduced activation of caspase 3
same,caspase 3 activation in TgCM exposed neurons,[1]; [11],no increase
same,levels of cytochrome c in the cytosol or mitochondrial pellet,[4],did not alter levels of cytochrome c
same,tau cleavage in STS treated cells,[5]; [10],reduced tau cleavage
same,TauC3 levels / tau cleavage in TgCM exposed neurons,[5]; [11],no increase
same,spine loss triggered by TgCM,[6]; TgCM treated neurons plus inhibitor,fully blocked the spine loss
same,spine density in WtCM exposed neurons,[6]; WtCM plus inhibitor,significant increase in spine density
same,Aβ-induced caspase 9 activation,[7],blocked
same,STS-induced cell death,[8]; STS plus inhibitor,blocked
"CN[C@@H]1C[C@H]2O[C@@](C)([C@@H]1OC)n1c3ccccc3c3c4c(c5c6ccccc6n2c5c31)C(=O)NC4 [STS, staurosporine]",cleaved PARP,[9],induced PARP cleavage
same,cell death (release of adenylate kinase),[8]; compared to control,cell death was induced
